Patent publication US4861788A, “Antibacterial 1-normon-2-yl-heterocyclic compounds” (Beecham Group plc, priority 1983, dated 1989)
In brackets after ≈: the same amount, converted by molar mass. Like-named read-outs stand apart in the source and are kept apart here.

Columns and labels:
M. hyopneumoniae JF 435 = experiment: MIC against Mycoplasma in vitro (Friis broth with agarose); assay type: cell-based; details: Mesomycoplasma hyopneumoniae, JF435, 144 h
M. hyopneumoniae MS 16 = experiment: as above; assay type: cell-based; details: Mesomycoplasma hyopneumoniae, MS16, 144 h; M. hyopneumoniae MS 16; 6 days at 37° C; read-out: MIC
M. hyopneumoniae UCD 1 = experiment: as above; assay type: cell-based; details: Mesomycoplasma hyopneumoniae, UCD1, 144 h; M. hyopneumoniae UCD 1; 6 days at 37° C; read-out: MIC
M. hyopneumoniae TAM 6N = experiment: as above; assay type: cell-based; details: Mesomycoplasma hyopneumoniae, TAM6N, 144 h
[1] = test system: M. hyopneumoniae ATCC 25095; experiment: as above; assay type: cell-based; details: Mesomycoplasma hyopneumoniae, ATCC25095, 144 h; M. hyopneumoniae ATCC 25095; 6 days at 37° C; read-out: MIC
M. hyorhinis ATCC 23234 = experiment: as above; assay type: cell-based; details: Mesomycoplasma hyorhinis, ATCC23234, 144 h; M. hyorhinis ATCC 23234; 6 days at 37° C; read-out: MIC
M. hyorhinis ATCC 25021 = experiment: as above; assay type: cell-based; details: Mesomycoplasma hyorhinis, ATCC25021, 144 h; M. hyorhinis ATCC 25021; 6 days at 37° C; read-out: MIC
[2] = test system: M. hyosynoviae ATCC 25591; experiment: as above; assay type: cell-based; details: 144 h; M. hyosynoviae ATCC 25591; 6 days at 37° C; read-out: MIC
M. bovis NCTC 10131 = experiment: microbe, parasite or virus in culture; assay type: cell-based; details: NCTC10131, 144 h
[3] = test system: M. bovigenitalium ATCC 14173; experiment: MIC against Mycoplasma in vitro (Friis broth with agarose); assay type: cell-based; details: 144 h
M. dispar NCTC 10125 = experiment: as above; assay type: cell-based; details: 144 h; M. dispar NCTC 10125; 6 days at 37° C; read-out: MIC
M. gallisepticum S6 = experiment: as above; assay type: cell-based; details: Mycoplasmoides gallisepticum, 144 h; M. gallisepticum S6; 6 days at 37° C; read-out: MIC
M. pneumoniae ATCC 15492 = experiment: as above; assay type: cell-based; details: Mycoplasmoides pneumoniae, ATCC15492, 144 h; M. pneumoniae ATCC 15492; 6 days at 37° C; read-out: MIC
E. coli NCTC 10418 = experiment: MIC against veterinary bacteria in vitro (Diagnostic Sensitivity Test Agar); details: Escherichia coli, NCTC10418, 18 h
Description: (§1) The activity of the normonyl derivatives of the Examples against various veterinarily important bacteria, was assayed in vitro using two-fold serial dilutions in Diagnostic Sensitivity Test Agar inoculated with 10^4 organisms.

E. coli E1 = experiment: as above; details: Escherichia coli, E1, 18 h
Description: as §1

S. dublin S7 = experiment: as above; details: Salmonella enterica, S7, 18 h
Description: as §1

S. typhimurium S18 = experiment: as above; details: Salmonella enterica, 18 h
Description: as §1

Bord. bronchiseptica B08 = experiment: as above; details: Bordetella bronchiseptica, B08, 18 h
Description: as §1

Bord. bronchiseptica B09 = experiment: as above; details: Bordetella bronchiseptica, B09, 18 h
Description: as §1

Past. multocida PA1 = experiment: as above; details: Pasteurella multocida, PA1, 18 h
Description: as §1

Past. multocida PA2 = experiment: as above; details: Pasteurella multocida, PA2, 18 h
Description: as §1

Past. haemolytica PA5 = experiment: as above; details: Mannheimia haemolytica, PA5, 18 h
Description: as §1

[4] = test system: Erysipelothrix rhusiopathiae NCTC 8163; experiment: as above; details: NCTC8163, 18 h
Description: as §1

[5] = test system: Corynebacterium pyogenes CY1; experiment: as above; details: CY1, 18 h
Description: as §1

[6] = test system: Staph. aureus B4 (pen. resistant); experiment: as above; details: Staphylococcus aureus, 18 h
Description: as §1

[7] = test system: Staph. aureus 152 (pen. sens); experiment: as above; details: Staphylococcus aureus, 18 h
Description: as §1

Staph. aureus Oxford = experiment: as above; details: Staphylococcus aureus, 18 h
Description: as §1

[8] = test system: Strep. suis (group D) SPS11; experiment: as above; details: Streptococcus suis, 18 h
Description: as §1

Strep. uberis SPU1 = experiment: as above; details: Streptococcus uberis, SPU1, 18 h
Description: as §1

Strep. agalactiae SPA1 = experiment: as above; details: Streptococcus agalactiae, SPA1, 18 h
Description: as §1

[9] = M. hyopneumoniae JF 435, 6 days at 37° C, read-out: MIC
[10] = M. hyopneumoniae TAM 6N, 6 days at 37° C, read-out: MIC
[11] = M. bovigenitalium ATCC 14173, 6 days at 37° C, read-out: MIC

Compound | MIC (M. hyopneumoniae MS 16) [µg/mL] | MIC (M. hyopneumoniae UCD 1) [µg/mL] | MIC [1] [µg/mL] | MIC (M. hyorhinis ATCC 23234) [µg/mL] | MIC (M. hyorhinis ATCC 25021) [µg/mL] | MIC [2] [µg/mL] | MIC (M. bovis NCTC 10131) [µg/mL] | MIC (M. dispar NCTC 10125) [µg/mL] | MIC (M. gallisepticum S6) [µg/mL] | MIC (M. pneumoniae ATCC 15492) [µg/mL] | MIC (E. coli NCTC 10418) [µg/mL] | MIC (E. coli E1) [µg/mL] | MIC (S. dublin S7) [µg/mL] | MIC (S. typhimurium S18) [µg/mL] | MIC (Bord. bronchiseptica B08) [µg/mL] | MIC (Bord. bronchiseptica B09) [µg/mL] | MIC (Past. multocida PA1) [µg/mL] | MIC (Past. multocida PA2) [µg/mL] | MIC (Past. haemolytica PA5) [µg/mL] | MIC [4] [µg/mL] | also measured
CSc1ccc(-c2nnc(C=C(C)CC3OCC(CC4OC4C(C)C(C)O)C(O)C3O)o2)cc1 (stereo not drawn) [Example 3, 2-p-Methylthiophenyl-5-(1-normon-2-yl)-1,3,4-oxadiazole A] | 0.5 (≈ 1.02 µM) | 1 (≈ 2.04 µM) | 1 (≈ 2.04 µM) | 0.5 (≈ 1.02 µM) | 0.5 (≈ 1.02 µM) | 2.5 (≈ 5.1 µM) | 0.1 (≈ 0.204 µM) | 0.25 (≈ 0.51 µM) | > 10 | > 10 | > 80 | > 80 | > 80 | > 80 | > 80 | 5 (≈ 10.2 µM) | 2.5 (≈ 5.1 µM) | 2.5 (≈ 5.1 µM) | 20 (≈ 40.8 µM) | 40 (≈ 81.5 µM) | MIC (M. hyopneumoniae JF 435; [9]): 2.5 µg/mL (≈ 5.1 µM); MIC (M. hyopneumoniae TAM 6N; [10]): 2.5 µg/mL (≈ 5.1 µM); MIC [3, 11]: 0.5 µg/mL (≈ 1.02 µM); MIC [5]: > 80 µg/mL; MIC [6]: 2.5 µg/mL (≈ 5.1 µM); MIC [7]: 2.5 µg/mL (≈ 5.1 µM); MIC (Staph. aureus Oxford): 5 µg/mL (≈ 10.2 µM); MIC [8]: 80 µg/mL (≈ 163 µM); MIC (Strep. uberis SPU1): 2.5 µg/mL (≈ 5.1 µM); MIC (Strep. agalactiae SPA1): 10 µg/mL (≈ 20.4 µM)
CC(=Cc1nnc(-c2cccc([N+](=O)[O-])c2)o1)CC1OCC(CC2OC2C(C)C(C)O)C(O)C1O (stereo not drawn) [Example 2, 2-m-Nitrophenyl-5-(1-normon-2-yl)-1,3,4-oxadiazole A] | 0.025 (≈ 0.0511 µM) | 0.025 (≈ 0.0511 µM) | 0.025 (≈ 0.0511 µM) | 0.025 (≈ 0.0511 µM) | 0.025 (≈ 0.0511 µM) | 0.5 (≈ 1.02 µM) | 0.025 (≈ 0.0511 µM) | < 0.01 | > 10 | 2.5 (≈ 5.11 µM) | > 80 | > 80 | > 80 | > 80 | > 80 | 80 (≈ 163 µM) | 2.5 (≈ 5.11 µM) | 1.25 (≈ 2.55 µM) | 10 (≈ 20.4 µM) | 40 (≈ 81.7 µM) | MIC (M. hyopneumoniae JF 435): 0.05 µg/mL (≈ 0.102 µM); MIC (M. hyopneumoniae TAM 6N): 0.05 µg/mL (≈ 0.102 µM); MIC [3, 11]: 0.025 µg/mL (≈ 0.0511 µM); MIC [5]: > 80 µg/mL; MIC [6]: 5 µg/mL (≈ 10.2 µM); MIC [7]: 10 µg/mL (≈ 20.4 µM); MIC (Staph. aureus Oxford): 20 µg/mL (≈ 40.9 µM); MIC [8]: > 80 µg/mL; MIC (Strep. uberis SPU1): 2.5 µg/mL (≈ 5.11 µM); MIC (Strep. agalactiae SPA1): 10 µg/mL (≈ 20.4 µM)
COC(=O)CCCCCCCCn1nnnc1C=C(C)CC1OCC(CC2OC2C(C)C(C)O)C(O)C1O (stereo not drawn) [Example 13, 1-(8-Methoxycarbonyloctyl)-5-(1-normon-2-yl)-1H-tetrazole A] | > 10 | > 10 | > 10 | > 10 | > 10 | > 10 | 1 (≈ 1.86 µM) | > 10 | > 10 | > 10 | > 80 | > 80 | > 80 | > 80 | > 80 | 80 (≈ 149 µM) | 40 (≈ 74.3 µM) | 5 (≈ 9.28 µM) | > 80 | > 80 | MIC (M. hyopneumoniae JF 435; [9]): > 10 µg/mL; MIC (M. hyopneumoniae TAM 6N; [10]): > 10 µg/mL; MIC [3, 11]: 5 µg/mL (≈ 9.28 µM); MIC [5]: > 80 µg/mL; MIC [6]: > 80 µg/mL; MIC [7]: 20 µg/mL (≈ 37.1 µM); MIC (Staph. aureus Oxford): 40 µg/mL (≈ 74.3 µM); MIC [8]: > 80 µg/mL; MIC (Strep. uberis SPU1): 40 µg/mL (≈ 74.3 µM); MIC (Strep. agalactiae SPA1): > 80 µg/mL
CC(=Cc1nnc(-c2ccccc2)o1)CC1OCC(CC2OC2C(C)C(C)O)C(O)C1O (stereo not drawn) [Example 1, 2-(1-Normon-2-yl)-5-phenyl-1,3,4-oxadiazole A] | 2.5 (≈ 5.62 µM) | 5 (≈ 11.2 µM) | 2.5 (≈ 5.62 µM) | 2.5 (≈ 5.62 µM) | 1 (≈ 2.25 µM) | 1 (≈ 2.25 µM) | 0.05 (≈ 0.112 µM) | 0.5 (≈ 1.12 µM) | > 10 | > 10 | > 80 | > 80 | > 80 | > 80 | > 80 | 40 (≈ 90 µM) | 10 (≈ 22.5 µM) | 1.25 (≈ 2.81 µM) | 10 (≈ 22.5 µM) | 80 (≈ 180 µM) | MIC (M. hyopneumoniae JF 435; [9]): 5 µg/mL (≈ 11.2 µM); MIC (M. hyopneumoniae TAM 6N; [10]): 5 µg/mL (≈ 11.2 µM); MIC [3]: 0.1 µg/mL (≈ 0.225 µM); MIC [5]: > 80 µg/mL; MIC [6]: 5 µg/mL (≈ 11.2 µM); MIC [7]: 5 µg/mL (≈ 11.2 µM); MIC (Staph. aureus Oxford): 5 µg/mL (≈ 11.2 µM); MIC [8]: 80 µg/mL (≈ 180 µM); MIC (Strep. uberis SPU1): 5 µg/mL (≈ 11.2 µM); MIC (Strep. agalactiae SPA1): 40 µg/mL (≈ 90 µM)
